# Patent US20160287609A1, “ROR GAMMA MODULATORS” (ETH ZÜRICH, priority 2013, published 2016)
# Target: T1, RORγ (Homo sapiens, UniProt P51449)
# T1 construct: the cells were transfected with an expression vector for full-length RORγ; expressed in transfected cells; host or cells: 3T3L1 (mouse pre-adipocyte) cells, pcDNA3 expression vector, CMV promoter
# T1 sequence (P51449 1-518): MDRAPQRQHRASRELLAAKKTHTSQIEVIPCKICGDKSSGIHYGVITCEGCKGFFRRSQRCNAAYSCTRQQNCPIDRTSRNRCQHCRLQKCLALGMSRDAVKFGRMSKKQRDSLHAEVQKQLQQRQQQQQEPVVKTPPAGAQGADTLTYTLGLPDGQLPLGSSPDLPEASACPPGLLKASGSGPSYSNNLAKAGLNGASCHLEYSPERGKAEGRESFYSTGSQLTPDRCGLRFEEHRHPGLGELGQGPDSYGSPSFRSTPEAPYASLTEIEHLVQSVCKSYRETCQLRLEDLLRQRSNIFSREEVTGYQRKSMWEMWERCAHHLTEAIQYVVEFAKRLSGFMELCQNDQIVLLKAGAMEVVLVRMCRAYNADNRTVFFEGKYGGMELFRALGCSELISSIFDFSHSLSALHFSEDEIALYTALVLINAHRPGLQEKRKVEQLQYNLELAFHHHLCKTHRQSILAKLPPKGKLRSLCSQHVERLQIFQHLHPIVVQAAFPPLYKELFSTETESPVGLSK
# Test: Luciferase transfection assay: repression of RORγ transcriptional activity (MMP3 promoter reporter, dual luciferase)
# Format: cell-based
# Details: 10 μM added to growth medium of transfected 3T3L1 cells; firefly/renilla luciferase ratio 48 h after transfection; average, n at least 6
# Experimental: Adipocyte-like 3T3L1 cells grown to 60-70% confluence in 24 well dishes were used for the assay. The cells were transfected with the reporter gene (pMMP3-pGL3) or the respective empty pGL3 vector as control at a concentration of 0.1 μg/well. The pMMP3-pGL3 reporter expresses the luciferase gene under the control of the promoter of the RORγ target gene matrix metalloproteinase 3 (MMP3). In addition the cells were transfected with an expression vector for full-length RORγ or the respective empty pcDNA3 control vector at 0.1 ug/well. The pCMV-Renilla plasmid served as internal control to normalize for transfection efficacy at a concentration of 0.05 μg/well. All plasmids were transfected at the same time into the cell using the transfection reagent Fugene according to the manufacture's protocol (Promega). […] Firefly as well as renilla luciferase activity was measured 48 h after transfection using the Dual Luciferase Detection System (Promega) following the instructions provided by the manufacturer.
# Compounds 13a, 13b and 14a were tested for their ability to inhibit gene transcription induced by the orphan nuclear receptor RORγ using a dual luciferase assay. […] This system allows to determine if a substance of interest is actively repressing the transcriptional activity of RORγ by using reduced luciferase activity as a read-out (FIG. 2).
# For the actual experiment 60-70% confluent 3T3L1 pre-adipocytes were transfected with the MMP3 reporter, RORγ and the normalization vector expressing renilla luciferase. […] 48 h after introducing the plasmids, the cells were harvested, lysed and the activity of firefly as well as renilla luciferase measured in each well. The efficacy of a substance to repress RORγ activity was calculated from the ratio of firefly over renilla luciferase activity and normalization to the control wells and the DMSO treated wells. […]
row,Structure (SMILES),"transcriptional activity of RORγ, as % of the intensity measured in the presence of DMSO"
1,"C[C@H](C[C@@H](O)C(=O)O)C1C[C@H](O)[C@H]2C3C(CC[C@]12C)[C@@]1(C)CC[C@@H](O)C[C@H]1C[C@H]3O (stereo partly drawn) [Compound 13a, 3α,7α,15α,(23R)-tetrahydroxy-5β-cholanoic acid]",52%
2,"C[C@H](C[C@H](O)C(=O)O)C1C[C@H](O)[C@H]2C3C(CC[C@]12C)[C@@]1(C)CC[C@@H](O)C[C@H]1C[C@H]3O (stereo partly drawn) [Compound 13b, 3α,7α, 15α,(23S)-tetrahydroxy-5β-cholanoic acid]",57%
3,"C[C@H](C[C@@H](O)C(=O)NCCS(=O)(=O)O)C1C[C@H](O)[C@H]2C3C(CC[C@]12C)[C@@]1(C)CC[C@@H](O)C[C@H]1C[C@H]3O (stereo in doubt) [Compound 14a, 3α,7β,15α,(23R)-tetrahydroxy-5β-24-oxocholanyl-amino ethansulfonic acid]",56%
